How the values were obtained:
HMEC-1 [1] = experiment: Transendothelial permeability (transwell, FITC-dextran); type: cell-based; settings: 10 µg mL^−1, 12 h; FITC‐dextran 6µg mL^−1, 2 h or 6h, n = 3
Procedure: (§1) HMEC‐1, obtained from Shanghai Zhong Qiao Xin Zhou Biotechnology, was cultured in MCDB131 medium containing 10% foetal bovine serum (FBS) and 1% antibiotics (penicillin and streptomycin) in 5% CO2 incubator at 37 °C. HUVEC, obtained from Shanghai Zhong Qiao Xin Zhou Biotechnology, were cultured in ECM medium containing 5% FBS, 1% antibiotics (penicillin and streptomycin) and 1% endothelial cell growth supplement (ECGS) in 5% CO2 incubator at 37 °C. HEK 293T were obtained from ATCC, and cultured in Dulbecco's modified Eagle's medium (DM EM) containing 10% FBS and 1% antibiotics (penicillin and streptomycin) in 5% CO2 incubator at 37 °C. The SIRT6 KO 293T cells were constructed by Hanbio Biotechnology, the SIRT6 gRNA was 5′‐[…]‐3′. SIRT6 overexpression and knockdown recombinant lentivirus were constructed by Hanbio Biotechnology, the vector pGLV3‐harboring SIRT6 and SIRT6 shRNA (5′‐[…]‐3′) were used for lentivirus packaging. […]
HMEC‐1 transfected with relative plasmids were pretreated with ALK14(10 µg mL^−1) for 12 h and were grown on 0.4 µm‐pore transwell filters (Millipore, Bedford, MA) until confluent. […] Fluorescence of media in the lower chamber was detected at 485/530 nm by afluorescence microplate reader (FL × 800, BIO‐TEK Instruments).

[2] = tested on: FLAG-tagged ATF2 in 293T cells; experiment: ATF2 myristoylation, IP and Click-iT; type: cell-based; settings: 10 µg mL^−1, 12 h, n = 3
Procedure: (§2) HMEC‐1, obtained from Shanghai Zhong Qiao Xin Zhou Biotechnology, was cultured in MCDB131 medium containing 10% foetal bovine serum (FBS) and 1% antibiotics (penicillin and streptomycin) in 5% CO2 incubator at 37 °C. HUVEC, obtained from Shanghai Zhong Qiao Xin Zhou Biotechnology, were cultured in ECM medium containing 5% FBS, 1% antibiotics (penicillin and streptomycin) and 1% endothelial cell growth supplement (ECGS) in 5% CO2 incubator at 37 °C. HEK 293T were obtained from ATCC, and cultured in Dulbecco's modified Eagle's medium (DM EM) containing 10% FBS and 1% antibiotics (penicillin and streptomycin) in 5% CO2 incubator at 37 °C. The SIRT6 KO 293T cells were constructed by Hanbio Biotechnology, the SIRT6 gRNA was 5′‐[…]‐3′. SIRT6 overexpression and knockdown recombinant lentivirus were constructed by Hanbio Biotechnology, the vector pGLV3‐harboring SIRT6 and SIRT6 shRNA (5′‐[…]‐3′) were used for lentivirus packaging. The plasmid ATF2WT, ATF2K296R, GFP‐ATF2WT and GFP‐ATF2K296R were synthesized by Hanbio Biotechnology, and the plasmid pUC57‐SIRT6 and all primers were synthesized by Tsingke Biotechnology.
Click chemistry was used for the detection of K296 myristoylation of exogenous ATF2. The click chemistry‐based labeling and detection technology was conducted according to the manufacturer's instructions (Click‐iT Protein Reaction Buffer Kit Invitrogen C10276).

HMEC-1 [3] = experiment: Endothelial-stromal differentiation (CD31 and αSMA western blot); type: cell-based; settings: 10 ug/ml, 12h, n=3
Procedure: (§3) Protein samples were separated by SDS/PAGE and transferred to the PVDF membrane. The membrane was blocked with 5% BSA in TBST (25 mM Tris, pH 7.4, 150 mM NaCl, 0.1% Tween‐20), incubated with primary antibodies and secondary antibodies in TBST, and then treated with ECL Plus western blotting detection reagents (Bio‐rad). The chemiluminescence signal was analyzed by ChemiDoc imaging system (Bio‐rad).
as §1

[4] = tested on: endogenous ATF2 in HUVECs; experiment: Nuclear localization of endogenous ATF2, HUVEC; type: cell-based; settings: 10 µg mL^−1, 12 h, n = 3
Procedure: as §3, §1

[5] = tested on: VE‐Cadherin and PRKCD in HMEC-1; experiment: VE-Cadherin and PRKCD expression, western blot, HMEC-1; type: cell-based; settings: 10 µg mL^−1, 12 h, n = 3
Procedure: as §3, §1

293T cells = experiment: Global myristoylation level, western blot; type: cell-based
Procedure: as §3, §1

[6] = tested on: ATF2 in SIRT6 KD HMEC cells; experiment: Nuclear localization of ATF2, HMEC; type: cell-based; settings: 10 µg mL^−1, 12 h, n = 3; not the K296R mutant
Procedure: as §3, §1

ATF2 in 293T = experiment: ATF2 protein level, western blot; type: cell-based; settings: 0–20 µg mL^−1, 12 h, n = 3
Procedure: as §3, §1

FLAG‐ATF2 in 293T cells = experiment: Nuclear localization of FLAG-ATF2, 293T; type: cell-based; settings: 10 µg mL^−1, 12 h, n = 3
Procedure: as §3, §1

HMEC-1 [7] = experiment: Intercellular gap formation, VE-Cadherin immunofluorescence; type: cell-based; settings: 10 µg mL^−1, 12 h, n = 8–10; prevented by K296R
Procedure: as §2

[8] = tested on: ATF2 localization and PRKCD/VE‐cadherin axis in HUVECs; experiment: ALK14 versus myristic acid, ATF2 localization and PRKCD/VE-cadherin axis; type: cell-based; settings: each 10 μg/ml, 12 hours
Procedure: as §3, §1

SIRT6 = SIRT6 activator, ref [57]; cited from earlier work
Excerpt: Table 1 The activators of SIRT6 were represented with structure, EC50, category, company, indications, and reference. | column: EC50

| Structure (SMILES) | endothelial permeability, ATF2 K296R cells (HMEC-1 [1]) | endothelial permeability, ATF2 WT cells (HMEC-1 [1]) | ATF2 myristoylation level [2] | effect on endothelial‐stromal differentiation (HMEC-1 [3]) | ATF2 translocation [4] | PRKCD expression [5] | VE‐cadherin expression [5] | global myristoylation level, dose dependence (293T cells; 0–10 µg mL^−1, 12 hours) | global myristoylation level, ALK14-treated versus untreated (293T cells; SIRT6 WT and KO cells, 10 μg/ml) | nuclear accumulation of wild‐type ATF2 [6] | ATF2 protein level (ATF2 in 293T) | nuclear FLAG‐ATF2 accumulation (FLAG‐ATF2 in 293T cells) | intercellular gap formation (5 µm/10 µm), ATF2 WT (HMEC-1 [7]) | impact on ATF2 localization and PRKCD/VE‐cadherin axis, myristic acid versus ALK14 [8] | EC50 (SIRT6) |
| --- | --- | --- | --- | --- | --- | --- | --- | --- | --- | --- | --- | --- | --- | --- | --- |
| C#CCCCCCCCCCCCC(=O)O [ALK14, Alkynyl myristic acid] | absent in K296R mutants | ALK14‐induced permeability in ATF2 WT cells | significant myristoylation enhancement | Neither ALK14 nor ATF2 modification influenced endothelial‐stromal differentiation | translocation of endogenous ATF2 from nucleus to cytoplasm | PRKCD reduction | significantly reduced VE‐cadherin expression | dose‐dependent increases | significantly elevated global myristoylation levels | reduced nuclear accumulation of wild‐type ATF2 | remained stable | significantly reduced nuclear FLAG‐ATF2 accumulation | ALK14‐induced gap formation | equivalent impacts |  |

From paper PMC12591191, “SIRT6 Lysine‐Demyristoylates ATF2 to Ameliorate Vascular Injury via PRKCD/VE‐Cadherin Pathway Regulating Vascular Endothelial Barrier” (Advanced Science, 2025)
